{
  "source": "patent US20120088667A1",
  "about": "“SAFENING AGENT” (priority 2009, published 2012)",
  "key": {"PEA cv Ragtime [1]": {"test_system": "PEA cv Ragtime", "experiment": "Root nodulation and safening, pea, compost of normal pH (Example 7.6)", "conditions": "compost of normal pH (6.5)", "from_the_text": "(§1) The safener/safening system and the fertiliser were applied to the crops either simultaneously or sequentially.\n(§2) Co=100% Cobalt Sulphate (20 g per litre and per hectare). FF1=20 g per litre Cobalt Sulphate (as per Co above) plus “Miracle-Gro” at xl recommended rate (applied at 15 g per 2.5 sq metres). Miracle-Gro contains: 24% N, 4% P, 13% K, plus 0.02% B, 0.03% Cu, 0.19% Fe, 0.05% Mn, 0.001% Mo and 0.03% Zn. FF2=20 g per litre Cobalt Sulphate plus Miracle-Gro at ×2 recommended rate. SAF: at least one from class (f) each at <3 g/l, plus at least one from class (c).\nPEA—TRIAL 7.6—cv Ragtime. Dates as per Example 7.5 above, but sown in compost of normal pH (6.5). […] No inoculum was applied."}, "NAVY BEAN cv Mogex": {"test_system": "NAVY BEAN cv Mogex", "experiment": "Root nodulation and safening, navy bean, compost of low pH (Example 7.3)", "conditions": "compost of low pH (5.0-5.5)", "from_the_text": "as §1, §2\nNAVY BEAN cv Mogex. Scored/Counted+28 Days after Spraying. Sown in Compost of low pH (5.0-5.5) on 29 Apr. 2008. Spray Date (VC)=27 May, V1 Date=16 June. Scored/Measured on 11 July. Each treatment represents the mean value of 12 plants, within four replicates. No inoculum applied."}, "[2]": {"test_system": "Oilseed rape cv Excalibur", "conditions": "for Greenness (0-9) (9 = Deeper Green) + 14 Days / Vigour (0-9) (9 = Most Vigour) + 14 days / Greenness (0-9) + 28 Days / Vigour (0-9) + 28 Days: score 0-9", "from_the_text": "Safening systems were applied to crops of oilseed rape and winter treated with various herbicides (Bifenox (with insecticide), Carbetamide, Propaquizafop, Chlorotoluron, Isoproturon, Flumioxazin). The safening system and the herbicide were applied to the crops either simultaneously or sequentially.\nOilseed rape: cv Excalibur, sown 26 Apr. 2008, at two seeds per 9 cm pot, sown in normal pH multi-purpose compost. Date of spraying: 6 June; Dates of measurement/scoring: 13 June, 20 June, 5 July. Winter wheat: cv Alchemy, sown 23 Apr. 2008, at seven seeds per 9 cm pot, sown in normal pH multi-purpose compost. Date of spraying: 24 May; Dates of measurement/scoring: 31 May, 7 June, 21 June. SAF: at least one from class (f) each at <3 g/l, plus at least one from class (c).\nStatistical Layout: Randomised Complete Block trials, under glasshouse conditions, United Kingdom."}, "Lettuce cv Set": {"test_system": "Lettuce cv Set", "experiment": "Safening of fertilisers, pot trial: phytotoxicity and vigour scores, lettuce", "assay_type": "in vivo", "from_the_text": "(§3) The safening system and the fertilizer were applied either simultaneously or sequentially.\n(§4) Sprayed: mid-tillering phase (GS23). Winter Wheat: cv Limerick, sown 4 Jun. […] Sprayed: mid-tillering phase (GS23). Lettuce: cv Set, sown 10 Jul. 2008, at one seed per pot, in John Innes No 1 compost. Date of spraying: 30 July; Dates of measurement: 7 August, 14 August, 28 August. Sprayed: 2 true leaf stage."}, "PEA cv Ragtime [3]": {"test_system": "PEA cv Ragtime", "experiment": "Root nodulation, rooting and safening, pea, compost of low pH (Examples 7.5 and 7.7)", "from_the_text": "as §1, §2\nPEA—TRIAL 5—cv Ragtime. Scored/Counted+28 Days after Spraying. Sown in Compost of Low pH (5.0-5.5) on 28 Apr. 2008. Spray Date (VC)=26 May, V1 Date=14 June. Scored/Measured on 9 July. […] No inoculum applied.\nSowing details etc as per Example 7.5."}, "Winter Wheat cv Limerick": {"test_system": "Winter Wheat cv Limerick", "experiment": "Safening of fertilisers, pot trial: phytotoxicity and vigour scores, winter wheat", "assay_type": "in vivo", "conditions": "in vivo", "from_the_text": "as §3, §4"}, "Winter Barley cv Saffron": {"test_system": "Winter Barley cv Saffron", "experiment": "Safening of fertilisers, pot trial: phytotoxicity and vigour scores, winter barley", "assay_type": "in vivo", "from_the_text": "as §3, §4"}, "[4]": {"conditions": "herbicide Bifenox (with insecticide), Table 3.1"}, "[5]": {"conditions": "herbicides Carbetamide and Propaquizafop, Table 3.2"}, "[6]": {"conditions": "+28 days, herbicide Bifenox (with insecticide), Table 3.1"}, "[7]": {"conditions": "+28 days, herbicides Carbetamide and Propaquizafop, Table 3.2"}, "[8]": {"conditions": "compost of low pH (5.0-5.5), V1, score 0-9"}, "[9]": {"conditions": "low pH compost, application at V1, 0-9 scale"}},
  "note": "Where two headings read alike, the source gives them in different places.",
  "data": [
    {"smiles": "CC(=O)Nc1ccc(O)cc1", "note": "[AC, N-(4-hydroxypheyl)acetamide, reference compound]", "values": [
      {"measurement": "Nodules Per Plant (V1)", "setting": "PEA cv Ragtime [1]; V1, no inoculum", "result": 15.4},
      {"measurement": "Nodulation Score (0-9) (V1)", "setting": "PEA cv Ragtime [1]; V1, score 0-9", "result": 4.9},
      {"measurement": "Phyto-Toxicity Score (0-9) (V1)", "setting": "PEA cv Ragtime [1]; V1, score 0-9", "result": 7.0},
      {"measurement": "Vigour Score (0-9) (V1)", "setting": "PEA cv Ragtime [1]; V1, score 0-9", "result": 6.7},
      {"measurement": "Nodules Per Plant (VC)", "setting": "PEA cv Ragtime [1]; VC", "result": 16.4},
      {"measurement": "Nod Score (0-9) (VC)", "setting": "PEA cv Ragtime [1]; VC, score 0-9", "result": 5.0},
      {"measurement": "Nodules Per Plant (V1)", "setting": "NAVY BEAN cv Mogex; V1, +28 days after spraying, no inoculum", "result": 19.3},
      {"measurement": "Nodulation Score (0-9) (V1)", "setting": "NAVY BEAN cv Mogex; V1, score 0-9", "result": 3.1},
      {"measurement": "Phyto-Toxicity Score (0-9) (V1)", "setting": "NAVY BEAN cv Mogex; V1, score 0-9", "result": 5.6},
      {"measurement": "Vigour Score (0-9) (V1)", "setting": "NAVY BEAN cv Mogex; V1, score 0-9", "result": 6.0},
      {"measurement": "Nodules Per Plant (VC)", "setting": "NAVY BEAN cv Mogex; VC", "result": 22.1},
      {"measurement": "Nod Score (0-9) (VC)", "setting": "NAVY BEAN cv Mogex; VC, score 0-9", "result": 3.5},
      {"measurement": "Phytotoxicity (0-9) + 28 Days", "setting": "[2]; score 0-9, 0 = dead, +28 days, herbicides Carbetamide and Propaquizafop, Table 3.2", "result": 8.0},
      {"measurement": "Greenness (0-9) (9 = Deeper Green) + 14 Days", "setting": "[2]; [4]", "result": 8.0},
      {"measurement": "Vigour (0-9) (9 = Most Vigour) + 14 days", "setting": "[2]; [4]", "result": 8.0},
      {"measurement": "Greenness (0-9) (9 = Deeper Green) + 14 Days", "setting": "[2]; [5]", "result": 8.0},
      {"measurement": "Vigour (0-9) (9 = Most Vigour) + 14 days", "setting": "[2]; [5]", "result": 8.0},
      {"measurement": "Greenness (0-9) + 28 Days", "setting": "[2]; [6]", "result": 8.0},
      {"measurement": "Vigour (0-9) + 28 Days", "setting": "[2]; [6]", "result": 8.0},
      {"measurement": "Greenness (0-9) + 28 Days", "setting": "[2]; [7]", "result": 8.0},
      {"measurement": "Vigour (0-9) + 28 Days", "setting": "[2]; [7]", "result": 8.0},
      {"measurement": "Vigour (0-9) (9 = Most Vigour) + 14 days", "setting": "Lettuce cv Set; 336 h", "result": 8.0},
      {"measurement": "Vigour (0-9) + 28 Days", "setting": "Lettuce cv Set; 672 h", "result": 8.0},
      {"measurement": "Vigour (0-9) (9 = Most Vigour) + 14 days", "setting": "Lettuce cv Set; Table 1.8, lettuce, KP/ATS, score 0-9, +14 days", "result": 8.0},
      {"measurement": "Vigour (0-9) + 28 Days", "setting": "Lettuce cv Set; Table 1.8, lettuce, KP/ATS, score 0-9, +28 days", "result": 8.0},
      {"measurement": "Vigour (0-9) (9 = Most Vigour) + 14 days", "setting": "Lettuce cv Set; Table 1.9, lettuce, general fertilisers, score 0-9, 9 = Most Vigour, +14 days", "result": 8.0},
      {"measurement": "Vigour (0-9) + 28 Days", "setting": "Lettuce cv Set; Table 1.9, lettuce, general fertilisers, score 0-9, +28 days", "result": 8.0},
      {"measurement": "Phytotoxicity (0-9) (0 = Dead) + 14 Days", "setting": "Lettuce cv Set; in vivo", "result": 7.0},
      {"measurement": "Phytotoxicity (0-9) (0 = Dead) + 28 Days", "setting": "Lettuce cv Set; in vivo", "result": 6.5},
      {"measurement": "Nodules Per Plant (V1)", "setting": "PEA cv Ragtime [3]; compost of low pH (5.0-5.5), V1, +28 days after spraying, no inoculum", "result": 16.7},
      {"measurement": "Nodulation Score (0-9) (V1)", "setting": "PEA cv Ragtime [3]; [8]", "result": 5.0},
      {"measurement": "Phyto-Toxicity Score (0-9) (V1)", "setting": "PEA cv Ragtime [3]; [8]", "result": 5.2},
      {"measurement": "Vigour Score (0-9) (V1)", "setting": "PEA cv Ragtime [3]; [8]", "result": 5.1},
      {"measurement": "Nodules Per Plant (VC)", "setting": "PEA cv Ragtime [3]; compost of low pH (5.0-5.5), VC", "result": 17.3},
      {"measurement": "Nod Score (0-9) (VC)", "setting": "PEA cv Ragtime [3]; compost of low pH (5.0-5.5), VC, score 0-9", "result": 5.2},
      {"measurement": "Nodules Per Plant (V1)", "setting": "PEA cv Ragtime [3]; low pH compost, application at V1 (data from Example 7.5)", "result": 16.7},
      {"measurement": "Nodulation Score (0-9) (V1)", "setting": "PEA cv Ragtime [3]; [9]", "result": 5.0},
      {"measurement": "Phyto-Toxicity Score (0-9) (V1)", "setting": "PEA cv Ragtime [3]; [9]", "result": 5.2},
      {"measurement": "Rooting Score (0-9) (V1)", "setting": "PEA cv Ragtime [3]; [9]", "result": 4.2},
      {"measurement": "Phytotoxicity (0-9) (0 = Dead) + 14 Days", "setting": "Winter Wheat cv Limerick", "result": 7.0},
      {"measurement": "Vigour (0-9) (9 = Most Vigour) + 14 days", "setting": "Winter Barley cv Saffron; 336 h", "result": 7.0},
      {"measurement": "Vigour (0-9) + 28 Days", "setting": "Winter Barley cv Saffron; 672 h", "result": 8.0},
      {"measurement": "Vigour (0-9) (9 = Most Vigour) + 14 days", "setting": "Winter Barley cv Saffron; Table 1.3, winter barley, general fertilisers, score 0-9, +14 days", "result": 7.0},
      {"measurement": "Vigour (0-9) + 28 Days", "setting": "Winter Barley cv Saffron; Table 1.3, winter barley, general fertilisers, score 0-9, +28 days", "result": 8.0}
    ]}
  ]
}
